Results on two compounds are retold here after ChEMBL document CHEMBL4364346, “Structure optimization of a new class of PPARγ antagonists” (Bioorg Med Chem, 2019).

SMILES strings stand for the structures. ≈ marks a conversion by molar mass, not a printed value. Calls of active or inactive are those of the source. The calls are words filed in the database; no cut-off is given here.

A short description of series [1]: Metabolic stability in Sprague-Dawley rat liver microsomes assessed as half life at […] incubated for 60 mins. Format: ADME, Microsome.
Series [2] addresses T1, Bile acid receptor (Homo sapiens) (UniProt Q96RI1).
T1 sequence (whole entry): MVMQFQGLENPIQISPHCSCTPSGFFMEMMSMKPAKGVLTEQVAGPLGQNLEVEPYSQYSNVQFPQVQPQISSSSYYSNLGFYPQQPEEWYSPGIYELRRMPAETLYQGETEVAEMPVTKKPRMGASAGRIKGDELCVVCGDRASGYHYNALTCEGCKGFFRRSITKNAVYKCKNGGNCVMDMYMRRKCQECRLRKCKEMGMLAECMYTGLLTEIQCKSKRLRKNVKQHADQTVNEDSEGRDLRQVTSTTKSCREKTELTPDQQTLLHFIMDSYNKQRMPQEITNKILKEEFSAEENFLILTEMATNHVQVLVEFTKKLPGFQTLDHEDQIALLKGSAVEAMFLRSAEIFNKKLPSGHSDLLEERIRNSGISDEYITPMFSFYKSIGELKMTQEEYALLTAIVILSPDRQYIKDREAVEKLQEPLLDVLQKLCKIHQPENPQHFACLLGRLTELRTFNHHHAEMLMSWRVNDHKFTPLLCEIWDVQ
The series is described as follows: Antagonist activity at recombinant human pFA-CMV fused FXR LBD transfected in HEK293T cells assessed as reduction in GW4064-induced FXR activation at 1 uM incubated for 12 to 14 hrs by dual glo luciferase reporter gene assay. Format: cell-based.

The target of series [3] is T2, Retinoic acid receptor RXR-alpha (Homo sapiens) (UniProt P19793).
T2 sequence (whole entry): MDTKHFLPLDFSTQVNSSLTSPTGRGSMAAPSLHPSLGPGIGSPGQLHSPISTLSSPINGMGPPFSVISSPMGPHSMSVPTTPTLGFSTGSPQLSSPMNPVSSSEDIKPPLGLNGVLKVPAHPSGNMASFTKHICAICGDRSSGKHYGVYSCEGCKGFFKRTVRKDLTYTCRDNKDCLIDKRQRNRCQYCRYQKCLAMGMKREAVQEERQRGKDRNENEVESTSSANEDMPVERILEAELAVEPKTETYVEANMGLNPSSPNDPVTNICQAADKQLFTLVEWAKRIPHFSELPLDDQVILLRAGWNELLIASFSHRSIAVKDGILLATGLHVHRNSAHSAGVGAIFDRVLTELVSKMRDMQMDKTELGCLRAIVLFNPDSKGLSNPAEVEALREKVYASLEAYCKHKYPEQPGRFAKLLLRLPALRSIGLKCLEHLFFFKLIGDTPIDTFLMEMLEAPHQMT
In words: Antagonist activity at recombinant human pFA-CMV fused RXRalpha LBD transfected in HEK293T cells assessed as reduction in bexarotene-induced RXRalpha activation at 1 uM incubated for 12 to 14 hrs by dual glo luciferase reporter gene assay. Format: cell-based.

A short description of series [4]: Cmax in Swiss CD1 mouse at 1 mg/kg, ip measured upto 7 hrs by LC-MS analysis. Particulars: in vivo. The series is classed as ADME, organism-based. Set-up: dose 1 mg/kg, route intraperitoneal.
Series [5] is described as follows: Tmax in Swiss CD1 mouse at 10 mg/kg, ip measured upto 7 hrs by LC-MS analysis. Format: ADME, organism-based. The note with it: in vivo.
Series [6] is described as follows: Cmax in Swiss CD1 mouse at 10 mg/kg, ip measured upto 7 hrs by LC-MS analysis. The note with it: in vivo. Set-up: dose 10 mg/kg, route intraperitoneal. Format: ADME, organism-based.
A short description of series [7]: Solubility of compound in PBS buffer pH 7.4 with 1% DMSO measured after 1 and 24 hrs. The series is classed as physicochemical. Particulars: PBS buffer with 1% DMSO.
For series [8], the target named is T3, Peroxisome proliferator-activated receptor gamma (Homo sapiens, UniProt P37231).
T3 sequence (P37231 whole entry): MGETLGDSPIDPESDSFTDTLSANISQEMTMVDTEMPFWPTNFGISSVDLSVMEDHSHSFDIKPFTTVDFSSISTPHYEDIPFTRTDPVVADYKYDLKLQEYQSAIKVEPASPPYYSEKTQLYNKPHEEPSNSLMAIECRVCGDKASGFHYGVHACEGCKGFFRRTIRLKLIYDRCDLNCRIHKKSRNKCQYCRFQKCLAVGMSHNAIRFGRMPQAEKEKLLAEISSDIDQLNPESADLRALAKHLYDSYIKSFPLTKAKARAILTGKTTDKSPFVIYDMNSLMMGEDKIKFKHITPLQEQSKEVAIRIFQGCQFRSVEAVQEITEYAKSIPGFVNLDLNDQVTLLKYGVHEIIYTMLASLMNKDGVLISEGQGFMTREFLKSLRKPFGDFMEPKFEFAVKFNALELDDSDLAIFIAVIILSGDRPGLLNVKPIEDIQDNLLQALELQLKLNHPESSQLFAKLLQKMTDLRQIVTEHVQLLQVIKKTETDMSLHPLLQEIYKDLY
In words: Antagonist actvity in pFA-GAL4-DBD fused PPARgamma LBD (unknown origin) transfected in HEK293T cells assessed as inhibition of rosiglitazone-induced PPARgamma transactivation incubated for 24 hrs by luciferase reporter gene assay. Format: cell-based. Particulars: read-out: IC50.

Series [9] addresses T4, Peroxisome proliferator-activated receptor alpha (Homo sapiens) (UniProt Q07869).
T4 sequence (whole entry): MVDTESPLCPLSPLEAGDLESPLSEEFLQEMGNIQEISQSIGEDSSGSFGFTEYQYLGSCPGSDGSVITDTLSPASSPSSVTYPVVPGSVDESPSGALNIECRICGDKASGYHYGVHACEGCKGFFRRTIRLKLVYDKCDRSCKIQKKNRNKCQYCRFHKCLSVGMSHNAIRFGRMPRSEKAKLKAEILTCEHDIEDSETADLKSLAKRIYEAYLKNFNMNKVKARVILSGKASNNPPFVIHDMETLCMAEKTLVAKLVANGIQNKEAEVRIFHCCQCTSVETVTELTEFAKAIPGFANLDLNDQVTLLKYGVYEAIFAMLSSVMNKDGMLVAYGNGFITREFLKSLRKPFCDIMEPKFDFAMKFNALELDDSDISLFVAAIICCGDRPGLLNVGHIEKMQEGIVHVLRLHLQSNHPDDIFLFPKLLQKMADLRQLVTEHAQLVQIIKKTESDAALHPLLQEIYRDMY
In words: Antagonist activity at recombinant human pFA-CMV fused PPARalpha LBD transfected in HEK293T cells assessed as reduction in GW7647-induced PPARalpha activation at 1 uM incubated for 12 to 14 hrs by dual glo luciferase reporter gene assay. The series is classed as cell-based.

Consider `CCC/C(=C\c1cc(OCc2ccc3nc(C(F)(F)F)cc(OC)c3c2)ccc1OCC1CCN(C)CC1)C(=O)O`, for which the half-life in [1] was > 1 h. In addition, the result in series [2], in series [3] and in series [9] was inactive. For the same compound, the Cmax in [4] amounted to 60 nM; in series [6] it was 380 nM. Further, the Tmax in series [5] turned out to be 2 h. The compound further yielded a solubility at 24 h in [7] of 125 to 150 µM (≈ 71.6 to 85.9 µg/mL). Further, in [8], the IC50 was 2.5 µM.
As for `CCC/C(=C\c1cc(OCc2ccc3nc(C(F)(F)F)cc(OC)c3c2)ccc1OCCN1CCN(C)CC1)C(=O)O`, the half-life in series [1] was > 1 h. The result in [2], in series [3] and in series [9] was inactive. The Cmax in [4] is 74 nM; in series [6] it was 446 nM. Also, the Tmax in series [5] is 0.25 h. This compound also came in with a solubility at 24 h in series [7] of 200 to 250 µM (≈ 118 to 147 µg/mL). For the same compound, in series [8], the 50% inhibitory concentration (IC50) was determined as 4.7 µM.
